Publication PMC6579712 (Xenobiotica; the fate of foreign compounds in biological …, 2018)
Entries after “also recorded” stand apart in the source; their conditions may differ. Like-named read-outs stand apart in the source and are kept apart here.

Key:
RT-SHIV [1] = test: 90% inhibitory quotient; set-up: IQ90 in NHP brain tissue, one individual animal: unit not given beside the values; conditions: for IQ90 in NHP brain tissue, one individual animal: the single animal above 1
[2] = ARV concentrations in brain tissue and plasma by LC-MS/MS, hu-HSC-RAG mice; conditions: p=0.29
[3] = in vivo
RT-SHIV [4] = test: IC90 against the RT-SHIV strain of virus; format: cell-based
in vitro = in vitro ADME, rhesus macaques; conditions: rhesus macaque, frontal cortex brain tissue homogenate
[5] = in vivo; cited from earlier work
[6] = no reference given; cited from earlier work
[7] = ARV concentrations in brain tissue, CSF and plasma by LC-MS/MS, NHPs
[8] = in vivo; cited from earlier work; remark: listed apart in the source
HIV = conditions: target value used for colocalization; cited from earlier work
[9] = cited from earlier work
[10] = ARV concentrations in brain tissue and plasma by LC-MS/MS, BLT mice; conditions: BLT vs hu-HSC-RAG

CC(Cn1cnc2c(N)ncnc21)OCP(=O)(O)OP(=O)(O)OP(=O)(O)O (stereo in doubt) [TFV-dp, tenofovir diphosphate]
IQ90 in NHP brain tissue, one individual animal (RT-SHIV [1]): 1.1 | fold higher median TFV-dp brain concentration in hu-HSC-RAG vs BLT mice [2]: 10 fold | TFV-dp concentration range in all brain tissue samples [3]: 851 to 179,000 fmol/g of tissue

COC(=O)N[C@H](C(=O)N[C@@H](Cc1ccccc1)[C@@H](O)CN(Cc1ccc(-c2ccccn2)cc1)NC(=O)[C@@H](NC(=O)OC)C(C)(C)C)C(C)(C)C [ATZ, atazanavir]
fold higher IC90 against RT-SHIV than against clinical HIV-1 isolates (RT-SHIV [4]): 1,000 fold | fraction unbound at 18 h (in vitro): 0.76 | CSF concentrations [5]: 5 to 21 ng/mL | BCS class [6]: class I or class II

O=C1Nc2ccc(Cl)cc2[C@@](C#CC2CC2)(C(F)(F)F)O1 [EFV, efavirenz]
total brain tissue concentration, median [range] ([7]; NHP, LC-MS/MS, four brain regions combined): 775 ng/g | median brain tissue concentration, human post-mortem [8]: 900 ng/g | BCS class [6]: class I or class II | IC50 target (HIV): 2 ng/g | blood plasma protein binding ([9]; ref Boffito et al. 2003): 99.5%

Nc1nc(=O)n([C@@H]2CS[C@H](CO)O2)cc1F [FTC, emtricitabine]
fold lower CSF concentration in NHPs than human concentrations ([7]; compared with ref Calcagno (2014)): approximately 3 fold | fold higher brain tissue penetration in BLT mice compared to hu-HSC-RAG mice [10]: 5 fold | protein binding in plasma ([9]; plasma): < 10%

Nc1nc(=O)n([C@@H]2CS[C@H](COP(=O)(O)OP(=O)(O)OP(=O)(O)O)O2)cc1F [FTC-tp, emtricitabine triphosphate]
FTC-tp in brain tissue (all three animal models): not detected; also recorded: not quantifiable

Cc1nnc(C(=O)NC(C)(C)c2nc(C(=O)NCc3ccc(F)cc3)c(O)c(=O)n2C)o1 [RAL, raltegravir]
Kp at 1 day after the last of ten days of dosing (both, hu-HSC-Rag and BLT (mice), mouse (humanized) and rhesus macaque, in vivo): 0.11 to 0.12 | IQ90 from total brain tissue concentrations (RT-SHIV [1]; six of the remaining seven animals): < 1 | IQ90 from unbound brain tissue concentration (RT-SHIV [1]; the one animal where unbound concentration could be measured): 0.07 | IQ90 in NHP brain tissue, one individual animal (RT-SHIV [1]): 1.1

C[C@H](Cn1cnc2c(N)ncnc21)OCP(=O)(O)O [TFV, tenofovir]
fold higher brain tissue penetration in BLT mice compared to hu-HSC-RAG mice [10]: 3 fold | median brain tissue concentration, human post-mortem [8]: 80 ng/g | protein binding in plasma ([9]; no reference given): < 10%

maraviroc [MVC]
fold higher IC90 against RT-SHIV than against clinical HIV-1 isolates (RT-SHIV [4]): 100 fold
